Test results taken from patent US20240016735A1, “IONIC LIQUIDS FOR DRUG DELIVERY” (PRESIDENT AND FELLOWS OF HARVARD COLLEGE, priority 2019, published 2024).

Tests used:
[1] = anion of ionic liquid; cited from earlier work
[2] = test system: intestinal villi of Wistar rats; test: In vivo local delivery of antibody-CGLY via intrajejunal administration; settings: rat, 1 mg mL^−1 FITC-IgG in 50% v/v CGLY2:1, 2 h
Procedure: Rats receiving equivalent saline injection without FITC-IgG were used as the negative control group. After 2 h, the rats were sacrificed and jejunal tissues were harvested and preserved using Swiss-rolling technique^[14]. […] The tissues were then frozen at −80° C. in the presence of optimum cutting temperature (OCT) compound and tissue sections were cut into 25 m thickness. was visualized using a slide scanner microscope (ZEISS Axio Scan.Z1) and the images processed using Zen™ (Blue edition) software.

[3] = cation:anion 1:2
Text: IL selection. A library of ILs was designed and synthesized to assess siRNA delivery into skin. Cholinium was used as the cation in all ILs due to its biocompatibility. Several different anions were used to synthesize ILs (FIGS. 24A-24E). […] Other anions were chosen for several reasons. First, anions containing shorter linear carbon chains were chosen in contrast to geranic acid to assess the impact of the chain length on siRNA stability and delivery. Anions with aromatic groups were chosen since they might interact with the stacked RNA base pairs via electrostatic, hydrophobic, and polar interactions. All ILs were prepared at a stoichiometric ratio of 1:2 (cation:anion) and were assessed for stability and siRNA delivery. […] In addition, since both interleukin and ILs have been denoted as “IL,” for the purpose of clarity, all interleukins are referred by a numerical value throughout the manuscript.
(§1) Skin-penetrating IL-RNA complexes. The cholinium-based IL library was synthesized as described previously (26). Briefly, the cation, choline bicarbonate, and various anions were mixed at a 1:2 ratio to prepare ILs following salt metathesis reaction. […] The resulting IL solution was dried using a rotary evaporator at 20 mbar at 60° C. for 2 hours. The residual water was removed in a vacuum oven at 60° C. for 48 hours. The ILs that were viscous at RT were characterized via NMR with dimethyl sulfoxide (DMSO)-d6 on an Agilent DD2 600-MHz spectrometer (Supplementary Materials and Methods). ILs were mixed with RNA (100 μM) at a volumetric ratio of 1:1 and incubated for 30 min at RT. The RNA-IL solutions (1 ml) were dialyzed against 10 mM sodium phosphate buffer for 72 hours using Dialysis Cassettes (10,000 molecular weight cutoff, Invitrogen). The concentration of RNA was confirmed and normalized using a NanoDrop instrument (Thermo Fisher Scientific). The stability of the RNA in the IL solution was determined using CD and gel electrophoresis.

[4] = test system: siRNA; settings: IL 50% (v/v), 30 min incubation, dialysis 72 h
Procedure: as §1
RNA concentrations were normalized in 10 mM sodium phosphate buffer and incubated for 30 mins at RT to ensure reduction and equilibrium, and then loaded into quartz cuvettes. Near-UV spectra were recorded from 200 nm to 310 nm at 20° C. by averaging 5 scans at 0.1 nm intervals for each sample. Spectrum Manager 2 was used to subtract the baseline and the spectra were plotted as molar ellipticity, [0] (deg.cm2.dmol-1).

[5] = test system: porcine skin; test: Porcine skin penetration of Cy5-labeled siRNA in Franz diffusion cells (tape-stripping); type: in vitro ADME; settings: 24 h, IL 50% v/v or naked siRNA
Procedure: Skin penetration studies. Skin penetration studies were performed using porcine skin in FDCs, as described previously (40). A total volume of 20 μl of Cy5-labeled RNA (50 μM) in IL solutions was applied to the porcine skin surface and was incubated at 40° C. for 24 hours under occlusive conditions with moderate stirring. The skin permeability of RNA was visualized and quantified using confocal microscopy and tape-stripping techniques, respectively.
Porcine skin penetration ex-vivo studies Porcine skin studies were carried out in Franz diffusion cells (FDC) with penetration area of 1.77 cm^2. The porcine skin was obtained from Lampire Biological Laboratories, Pipersville, PA, USA. Briefly skins were thawed, hairs were trimmed, and washed with phosphate buffer saline (PBS, pH 7.4). A 36 mm punch was used to cut out a disc of the skin and a scalpel was used to get rid of the connective tissues and subcutaneous fat layers. […] 1 mL PBS was added to the donor chamber and the conductivity was measured using a waveform generator (Agilent 33120) and voltmeter (Fluke 87 True RMS Multimeter) at a frequency of 100 Hz and amplitude, 100 mV. Only skin samples with a measured transepidermal conductivity of less than […] were used for further studies. […] Following incubation, the skin was removed from the cell, washed gently with PBS and were further analyzed using tape-stripping and confocal microscopy. […]

CC(C)=CC(=O)O [3,3-dimethylacrylic acid]
pKa [1]: 5.02

O=S(=O)(O)c1ccc(O)cc1 [4-hydroxybenzenesulfonic acid]
pKa [1]: 9.11

O=C(O)c1cccc(-c2ccccc2)c1 [Bipheny1-3-carboxylic acid]
pKa [1]: 4.14

C[N+](C)(C)CCO.O=C([O-])CO [CGLY2:1, choline-glycolate]
FITC-IgG fluorescence signal on intestinal villi vs no-CGLY2:1 control [2]: over 4.5 fold

O=P(O)(O)Oc1ccccc1 [Phenylphosphoric acid]
pKa [1]: 9.99

choline and biphenyl-3-carboxylic acid [CABA]
physical state at room temperature [3]: solidified or formed a gel
siRNA secondary structure (CD, band at 210 nm) [4]: notable alteration in the a helix backbone

choline and dimethylacrylic acid [CADA]
physical state at room temperature [3]: viscous liquid
siRNA secondary structure (CD, band at 210 nm) [4]: notable alteration in the a helix backbone

choline and geranic acid [CAGE, reference compound]
physical state at room temperature [3]: viscous liquid
siRNA delivered into the epidermis [5]: About 0.20 nmol/cm2
siRNA secondary structure (CD, band at 210 nm) [4]: notable alteration in the a helix backbone

choline and phenylphosphoric acid [CAPP]
physical state at room temperature [3]: solidified or formed a gel

choline and phenylpropanoic acid [CAPA]
physical state at room temperature [3]: viscous liquid
siRNA secondary structure (CD, band at 210 nm) [4]: retained the secondary structure of siRNA
